# Assay results reported in patent US8772309B2, “Pharmaceutical formulation of apomorphine for buccal administration” (Amarin Pharmaceuticals Ireland Limited, priority 2005, dated 2014).
# How the values were obtained:
# [1] = test system: "on-off" fluctuations in Parkinson's disease; conditions: sublingual administration, patients responsive to subcutaneous apomorphine; cited from earlier work
# [2] = Ionisation of apomorphine (pKa, un-ionised proportion against pH); assay type: physicochemical
# Text: For optimal buccal absorption the apomorphine used should ideally be un-ionised at physiological pH.
# If the pH of the product is adjusted to about 8.0, approximately 10% of the apomorphine becomes un-ionised and thus available for absorption. The pH-dependent degree of ionisation of the drug is maintained by a dynamic equilibrium. As un-ionised drug is removed by absorption, more ionised drug becomes un-ionised in order to restore the equilibrium. As a result there is always a sufficient amount of un-ionised drug generated that can be absorbed rapidly.
smiles,measurement,setting,value
CN1CCc2cccc3c2[C@H]1Cc1ccc(O)c(O)c1-3 [apomorphine],Mean time to onset of effect,[1],approximately 30 minutes
same,Proportion of apomorphine un-ionised,[2]; pH 3.5,negligible
same,Proportion of apomorphine un-ionised,[2]; pH adjusted to about 8.0,approximately 10%
